Test results as given in patent publication US10457709B2, “Antimicrobial peptides, their variants and uses” (priority 2015, dated 2019).
Converted amounts (≈) assume the structure as drawn. Square brackets hold non-standard residues; d marks the D form. Ends that are not written are not given here. Peptide text beside a SMILES is read from it.

How the values were obtained:
S. aureus COL (MRSA) = format: cell-based, Staphylococcus aureus
Protocol: (§1) Minimum inhibition concentrations (MICs) were determined against Escherichia coli (ATCC 25922), Staphylococcus aureus (ATCC 25923), Klebsiella pneumoniae (ATCC 10031) and Pseudomonas aeruginosa (ATCC 27853). Also clinical strains of E. coli, K. pneumoniae, E. cloacae, P. aeruginosa, Serratia marcescens, Proteus mirabilis, S. pneumoniae, Acinetobacter baumannii, A. johnsonii and S. aureus were used for MICs assays. Additionally, clinical strains of yeast including Candida albicans, C. glabrata, C. parapsilosis and C. quillermondiae were used. The susceptibility of these microorganisms to Chain peptides were determined using micro broth dilution assay. Colonies of the respective microorganism from Muller Hinton (MH) agar plates incubated overnight were suspended in MH broth media and final concentration of microorganism was adjusted to 5.0×10^5 cfu/ml. An aliquot of 10 μl of each Chain peptide, or gentamicin, tetracycline as reference antibiotics were added in differing concentrations along with 90 μl of bacterial suspension to 96 well polypropylene plates and incubated at 37° C. for 20 to 24 hours. Concentrations of Chain peptides and reference antibiotics ranged from 0.125 to 128 μg/ml and the MICs were recorded as the lowest concentration with no visual growth of bacteria. Similarly, antifungal MICs were tested in Potato dextrose broth.
(§2) Peptides Chain 104, Chain 105, Chain 201, Chain 308, Chain 310 were tested against antibiotic-sensitive strains of S. aureus RN4220 and methicillin resistant strains of S. aureus COL (MRSA). Chain peptides comprising of either L- or D-form amino acids were tested against these bacteria, and the D-form peptides were found have better activity compared to L-form (Table 6). Synergistic activity of chain peptides along with Ertapenem (4 μg/ml) was tested to know whether it will influence the activity against MRSA strains. […] Chain 310 has the best antibacterial activity against the MRSA strains with a MIC of 0.06 & 0.03 μg/ml along with Ertapenem (4 μg/ml) for both forms of L and D-peptides (Table 6).

S. aureus RN4220 = format: cell-based, Staphylococcus aureus; conditions: antibiotic sensitive strain S. aureus RN4220
Protocol: as §1, §2

[1] = test system: MRSA strains (S. aureus COL); test: MIC, synergistic activity with Ertapenem (4 μg/ml); format: cell-based, Staphylococcus aureus; conditions: S. aureus COL, synergistic activity with 4 μg/ml Ertapenem
Protocol: as §1, §2

[2] = test system: C. parapsilosis clinical strains; test: MIC, clinical yeast strains; format: cell-based, Candida parapsilosis; parameters: unit: µg/ml
Protocol: as §1
(§3) Clinical strains of yeasts including Candida albicans, C. glabrata, C. parapsilosis and C. quillermondiae were also tested with the 12 Chain peptides. The minimum inhibitory concentration (MICs) varied between these peptides and are presented in Tables 4a, 4b, 4c and 5a, 5b, 5c. Peptides Chain 105, 201 and 308 are broad spectrum antimicrobials with MICs between 0.5-32 μg/ml against all the bacteria and yeasts tested, except Serratia marcescens and Proteus mirabilis, against which the MICs were between 64-128 μg/ml. Peptide Chain 306 has narrow spectrum activity against E. coli at 1 μg/ml and for the rest of the bacterial strains at >32 μg/ml (FIG. 10c).

[3] = test system: Klebsiella pneumoniae clinical strains; format: cell-based; conditions: clinical strains
Protocol: as §1, §3

[4] = test system: Escherichia coli clinical strains; format: cell-based; conditions: clinical strains
Protocol: as §1, §3

[5] = test system: Pseudomonas aeruginosa clinical strains; format: cell-based; conditions: clinical strains
Protocol: as §1, §3

[6] = test system: C. glabrata clinical strains; test: MIC, clinical yeast strains; format: cell-based, Candida glabrata; parameters: unit: µg/ml
Protocol: as §1, §3

[7] = test system: Candida albicans clinical strains; test: MIC, clinical yeast strains; format: cell-based; parameters: unit: μg/ml
Protocol: as §1, §3

[8] = test system: C. quillermondiae clinical strains; test: MIC, clinical yeast strains; format: cell-based, Candida quillermondiae; parameters: unit: μg/ml; conditions: C. quillermondiae clinical yeast strain 1
Protocol: as §1, §3

[9] = test system: Streptococcus pneumoniae clinical strains; format: cell-based; conditions: clinical strains
Protocol: as §1, §3

[10] = test system: Proteus mirabilis clinical strains; format: cell-based; conditions: clinical strains
Protocol: as §1, §3

[11] = test system: Serratia marcescens clinical strains; format: cell-based; conditions: clinical strains
Protocol: as §1, §3

[12] = test system: Staphylococcus aureus clinical strains; format: cell-based; conditions: clinical strains
Protocol: as §1, §3

[13] = test system: Enterobacter cloacae clinical strains; format: cell-based; conditions: clinical strains
Protocol: as §1, §3

## RLKWFLLFRKR [Compound 308]
S. aureus COL (MRSA)
  Minimum inhibitory concentration (MIC), S. aureus COL (MRSA): >64 µg/mL
S. aureus RN4220
  Minimum inhibitory concentration (MIC), S. aureus RN4220: >64 µg/mL
[1]
  Minimum inhibitory concentration (MIC), S. aureus COL + 4 μg/ml Ertapenem: 0.5 µg/mL

## RKWRAMIRLHAKWLRK [Compound 105]
S. aureus COL (MRSA)
  Minimum inhibitory concentration (MIC), S. aureus COL (MRSA): >64 µg/mL
S. aureus RN4220
  Minimum inhibitory concentration (MIC), S. aureus RN4220: >64 µg/mL
[1]
  Minimum inhibitory concentration (MIC), S. aureus COL + 4 μg/ml Ertapenem: 0.5 µg/mL

## CC[C@@H](C)[C@@H](NC(=O)[C@@H](CCSC)NC(=O)[C@@H](C)NC(=O)[C@@H](CCCNC(=N)N)NC(=O)[C@@H](Cc1c[nH]c2ccccc12)NC(=O)[C@@H](CCCCN)NC(=O)[C@H](N)CCCNC(=N)N)C(=O)N[C@H](CCCNC(=N)N)C(=O)N[C@H](CC(C)C)C(=O)N[C@H](Cc1c[nH]cn1)C(=O)N[C@H](C)C(=O)N[C@H](CCCCN)C(=O)N[C@H](Cc1c[nH]c2ccccc12)C(=O)N[C@H](CC(C)C)C(=O)N[C@H](CCCNC(=N)N)C(=O)N[C@H](CCCCN)C(=O)O [105 D] (H-[dR][dK][dW][dR][dA][dM][dI][dR][dL][dH][dA][dK][dW][dL][dR][dK]-OH)
S. aureus COL (MRSA)
  Minimum inhibitory concentration (MIC), S. aureus COL (MRSA): 8 µg/mL
S. aureus RN4220
  Minimum inhibitory concentration (MIC), S. aureus RN4220: 16 µg/mL
[1]
  Minimum inhibitory concentration (MIC), S. aureus COL + 4 μg/ml Ertapenem: 2 µg/mL

## RKWRAMIRLHAKRLRK [Compound 104]
S. aureus COL (MRSA)
  Minimum inhibitory concentration (MIC), S. aureus COL (MRSA): >64 µg/mL
S. aureus RN4220
  Minimum inhibitory concentration (MIC), S. aureus RN4220: >64 µg/mL
[1]
  Minimum inhibitory concentration (MIC), S. aureus COL + 4 μg/ml Ertapenem: 0.25 µg/mL

## CC(C)C[C@@H](NC(=O)[C@H](N)CCCNC(=N)N)C(=O)N[C@H](CCCCN)C(=O)N[C@H](Cc1c[nH]c2ccccc12)C(=O)N[C@H](Cc1ccccc1)C(=O)N[C@H](CC(C)C)C(=O)N[C@H](CC(C)C)C(=O)N[C@H](Cc1ccccc1)C(=O)N[C@H](CCCNC(=N)N)C(=O)N[C@H](CCCCN)C(=O)N[C@H](CCCNC(=N)N)C(=O)O [308 D] (H-[dR][dL][dK][dW][dF][dL][dL][dF][dR][dK][dR]-OH)
S. aureus COL (MRSA)
  Minimum inhibitory concentration (MIC), S. aureus COL (MRSA): 4 µg/mL
S. aureus RN4220
  Minimum inhibitory concentration (MIC), S. aureus RN4220: 4 µg/mL
[1]
  Minimum inhibitory concentration (MIC), S. aureus COL + 4 μg/ml Ertapenem: 1 µg/mL

## KWIVWRWRFKR [Compound 201]
S. aureus COL (MRSA)
  Minimum inhibitory concentration (MIC), S. aureus COL (MRSA): 64 µg/mL
S. aureus RN4220
  Minimum inhibitory concentration (MIC), S. aureus RN4220: 64 µg/mL
[1]
  Minimum inhibitory concentration (MIC), S. aureus COL + 4 μg/ml Ertapenem: 0.5 µg/mL

## CC(C)C[C@@H](NC(=O)[C@@H](CCCCN)NC(=O)[C@@H](CCCCN)NC(=O)[C@@H](Cc1ccccc1)NC(=O)[C@@H](CC(C)C)NC(=O)[C@@H](Cc1c[nH]c2ccccc12)NC(=O)[C@@H](CCCNC(=N)N)NC(=O)[C@@H](Cc1c[nH]c2ccccc12)NC(=O)[C@@H](CCCCN)NC(=O)[C@@H](CCCNC(=N)N)NC(=O)[C@H](N)CCCCN)C(=O)O [310 D] (H-[dK][dR][dK][dW][dR][dW][dL][dF][dK][dK][dL]-OH)
S. aureus COL (MRSA)
  Minimum inhibitory concentration (MIC), S. aureus COL (MRSA): >64 µg/mL
S. aureus RN4220
  Minimum inhibitory concentration (MIC), S. aureus RN4220: >64 µg/mL
[1]
  Minimum inhibitory concentration (MIC), S. aureus COL + 4 μg/ml Ertapenem: <0.03 µg/mL

## CC(C)C[C@@H](NC(=O)[C@@H](CCCCN)NC(=O)[C@@H](Cc1c[nH]c2ccccc12)NC(=O)[C@@H](CCCCN)NC(=O)[C@@H](C)NC(=O)[C@@H](Cc1c[nH]cn1)NC(=O)[C@@H](CC(C)C)NC(=O)[C@@H](CCCNC(=N)N)NC(=O)[C@@H](Cc1c[nH]c2ccccc12)NC(=O)[C@H](N)Cc1c[nH]c2ccccc12)C(=O)N[C@H](Cc1c[nH]c2ccccc12)C(=O)O [Chain109D] (H-[dW][dW][dR][dL][dH][dA][dK][dW][dK][dL][dW]-OH)
[2]; C. parapsilosis clinical yeast strain 1
  Minimum inhibitory concentration: 128
[2]; C. parapsilosis clinical yeast strain 2
  Minimum inhibitory concentration: 128
[2]; C. parapsilosis clinical yeast strain 3
  Minimum inhibitory concentration: 128
[2]; C. parapsilosis clinical yeast strain 4
  Minimum inhibitory concentration: 8
[3]
  MIC, Klebsiella pneumoniae strain 1: 16 µg/mL (≈ 9.94 µM)
  MIC, Klebsiella pneumoniae strain 2: 8 µg/mL (≈ 4.97 µM)
  MIC, Klebsiella pneumoniae strain 3: 8 µg/mL (≈ 4.97 µM)
  MIC, Klebsiella pneumoniae strain 4: 16 µg/mL (≈ 9.94 µM)
  MIC, Klebsiella pneumoniae strain 5: 8 µg/mL (≈ 4.97 µM)
[4]
  MIC, Escherichia coli strain 1: 16 µg/mL (≈ 9.94 µM)
  MIC, Escherichia coli strain 2: 4 µg/mL (≈ 2.48 µM)
  MIC, Escherichia coli strain 3: 4 µg/mL (≈ 2.48 µM)
  MIC, Escherichia coli strain 4: 4 µg/mL (≈ 2.48 µM)
  MIC, Escherichia coli strain 5: 4 µg/mL (≈ 2.48 µM)
[5]
  MIC, Pseudomonas aeruginosa strain 1: 16 µg/mL (≈ 9.94 µM)
  MIC, Pseudomonas aeruginosa strain 2: 16 µg/mL (≈ 9.94 µM)
  MIC, Pseudomonas aeruginosa strain 3: 16 µg/mL (≈ 9.94 µM)
  MIC, Pseudomonas aeruginosa strain 4: 16 µg/mL (≈ 9.94 µM)
  MIC, Pseudomonas aeruginosa strain 5: 8 µg/mL (≈ 4.97 µM)
[6]; C. glabrata clinical yeast strain 1
  Minimum inhibitory concentration: 128
[6]; C. glabrata clinical yeast strain 2
  Minimum inhibitory concentration: 128
[6]; C. glabrata clinical yeast strain 3
  Minimum inhibitory concentration: 16
[6]; C. glabrata clinical yeast strain 4
  Minimum inhibitory concentration: 64
[7]; Candida albicans clinical yeast strain 1
  Minimum inhibitory concentration: 128
[7]; Candida albicans clinical yeast strain 2
  Minimum inhibitory concentration: 128
[7]; Candida albicans clinical yeast strain 3
  Minimum inhibitory concentration: 128
[7]; Candida albicans clinical yeast strain 4
  Minimum inhibitory concentration: 128
[7]; Candida albicans clinical yeast strain 5
  Minimum inhibitory concentration: 128
[8]
  Minimum inhibitory concentration: 128
[9]
  MIC, Streptococcus pneumoniae strain 1: 16 µg/mL (≈ 9.94 µM)
  MIC, Streptococcus pneumoniae strain 2: 8 µg/mL (≈ 4.97 µM)
  MIC, Streptococcus pneumoniae strain 3: 2 µg/mL (≈ 1.24 µM)
  MIC, Streptococcus pneumoniae strain 4: 8 µg/mL (≈ 4.97 µM)
  MIC, Streptococcus pneumoniae strain 5: 8 µg/mL (≈ 4.97 µM)
[10]
  MIC, Proteus mirabilis strain 1: >128 µg/mL
  MIC, Proteus mirabilis strain 2: 64 µg/mL (≈ 39.8 µM)
  MIC, Proteus mirabilis strain 3: 64 µg/mL (≈ 39.8 µM)
  MIC, Proteus mirabilis strain 4: >128 µg/mL
  MIC, Proteus mirabilis strain 5: >128 µg/mL
[11]
  MIC, Serratia marcescens strain 1: >128 µg/mL
  MIC, Serratia marcescens strain 2: >128 µg/mL
  MIC, Serratia marcescens strain 3: >128 µg/mL
  MIC, Serratia marcescens strain 4: >128 µg/mL
  MIC, Serratia marcescens strain 5: 64 µg/mL (≈ 39.8 µM)
[12]
  MIC, Staphylococcus aureus strain 1: 2 µg/mL (≈ 1.24 µM)
  MIC, Staphylococcus aureus strain 2: 4 µg/mL (≈ 2.48 µM)
  MIC, Staphylococcus aureus strain 3: 2 µg/mL (≈ 1.24 µM)
  MIC, Staphylococcus aureus strain 4: 2 µg/mL (≈ 1.24 µM)
  MIC, Staphylococcus aureus strain 5: 2 µg/mL (≈ 1.24 µM)
[13]
  MIC, Enterobacter cloacae strain 1: 4 µg/mL (≈ 2.48 µM)
  MIC, Enterobacter cloacae strain 2: 8 µg/mL (≈ 4.97 µM)
  MIC, Enterobacter cloacae strain 3: 8 µg/mL (≈ 4.97 µM)
  MIC, Enterobacter cloacae strain 4: 8 µg/mL (≈ 4.97 µM)
  MIC, Enterobacter cloacae strain 5: 4 µg/mL (≈ 2.48 µM)

## CC[C@@H](C)[C@@H](NC(=O)[C@@H](CCSC)NC(=O)[C@@H](C)NC(=O)[C@@H](CCCNC(=N)N)NC(=O)[C@@H](Cc1c[nH]c2ccccc12)NC(=O)[C@@H](CCCCN)NC(=O)[C@H](N)CCCNC(=N)N)C(=O)N[C@H](CCCNC(=N)N)C(=O)N[C@H](CC(C)C)C(=O)N[C@H](Cc1c[nH]cn1)C(=O)N[C@H](C)C(=O)N[C@H](CCCCN)C(=O)N[C@H](CCCNC(=N)N)C(=O)N[C@H](CC(C)C)C(=O)N[C@H](CCCNC(=N)N)C(=O)N[C@H](CCCCN)C(=O)O [104 D] (H-[dR][dK][dW][dR][dA][dM][dI][dR][dL][dH][dA][dK][dR][dL][dR][dK]-OH)
S. aureus COL (MRSA)
  Minimum inhibitory concentration (MIC), S. aureus COL (MRSA): 32 µg/mL
S. aureus RN4220
  Minimum inhibitory concentration (MIC), S. aureus RN4220: 64 µg/mL
[1]
  Minimum inhibitory concentration (MIC), S. aureus COL + 4 μg/ml Ertapenem: 4 µg/mL
